# Laboratory results: US8088791B2, “Antibacterial agents” (Biots Scientific Management Pty Ltd, priority 2006, dated 2012)
# Read-outs that look alike come from different tables or passages of the source.
# What was measured:
# Bacillus subtilis 168CA = test: Minimum Inhibitory Concentration (MIC) testing, broth microdilution, Bacillus subtilis; assay type: cell-based; details: Bacillus subtilis 168CA; read-out: Bacillus subtilis MICs Activity
# In short: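 MICs were scored A (≦8 μg/ml), B (16–64 μg/ml) or C (>64 μg/ml), read as the lowest concentration preventing visible growth by eye and spectrophotometry. Plates incubated overnight (16–20 h) at 37 °C, inoculum OD 0.09 diluted 1:100 in 2× broth, per NCCLS guidelines.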
# [1] = tested on: Staphylococcus aureus ATCC29213; test: Minimum Inhibitory Concentration (MIC) testing, broth microdilution, Staphylococcus aureus; assay type: cell-based; details: Staphylococcus aureus ATCC29213; read-out: Staphylococcus aureus MICs Activity
# In short: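 Broth microdilution per NCCLS M7-A5 in Mueller Hinton broth, with compound in 1.6% DMSO and inoculum at OD 0.09 diluted 1:100. Plates incubated 16–20 h at 37°C. MIC is the lowest concentration with no visible growth; scored A ≤8, B 16–64, C >64 μg/ml.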
# [2] = tested on: various bacterial species; test: Minimum Inhibitory Concentration (MIC) testing, broth microdilution, other bacterial species; assay type: cell-based
# Method: (§1) Compounds of this invention were tested for antimicrobial activity by susceptibility testing in liquid media. MICs for compounds against each strain were determined by a broth microdilution method according to the National Committee for Clinical Laboratory Standards (NCCLS) guidelines. (NCCLS. 2000. Methods for dilution antimicrobial susceptibility tests for bacteria that grow aerobically—fifth edition. Approved standard M7-A5. NCCLS, Wayne, Pa.)
# (§2) Briefly, test compounds are prepared in 100 μl of 1.6% DMSO solution in multiwell plates. Several bacterial colonies from a freshly streaked plate are transferred to an appropriate rich broth, such as Mueller Hinton. The cell suspension is adjusted to an optical density of 0.09 and further diluted 1:100 with warm 2× broth. This cell suspension is dispensed into the wells containing compound solution so that the final volume is 200 μl. The plates are incubated overnight (16-20 hours) at 37° C. and turbidity is scored by eye and quantified spectrophotometrically. The MIC is defined as the lowest concentration inhibiting visible growth.
# Some of the Examples were also tested for activity against other bacterial species. […] Activities were again scored as ‘A’ if the MIC was ≦8 micrograms/ml, ‘B’ if the MIC was 16 to 64 micrograms/ml and ‘C’ if the MIC was greater than 64 micrograms/ml.
# [3] = tested on: staphylococcal clinical isolates; test: Minimum Inhibitory Concentration (MIC) testing, broth microdilution, staphylococcal clinical isolates; assay type: cell-based; details: for MIC: read-out: MIC Activity against clinical isolate
# Method: as §1, §2
# Some of the Examples were also tested for activity against staphylococcal clinical isolates. […] Activities were again scored as ‘A’ if the MIC was ≦8 micrograms/ml, ‘B’ if the MIC was 16 to 64 micrograms/ml and ‘C’ if the MIC was greater than 64 micrograms/ml.
# [4] = Bacillus cereus, ATCC14579, read-out: MIC Activity Bacillus cereus ATCC 14579
# [5] = Staphylococcus saprophyticus, ATCC15305, read-out: MIC Activity Staphylococcus saprophyticus ATCC 15305
# [6] = S. aureus No. 753, Oxacillin S, Hospital
# [7] = S. aureus No. 757, Oxacillin R, Tet-R, MI-R, Hospital (tetM)
# [8] = S. aureus No. 1134, Oxacillin S, Hospital
# [9] = S. aureus No. 1135, Oxacillin R, Van-S, LZD-S, Hospital
# [10] = S. aureus No. 1651, Oxacillin R, Van-S, LZD-R, Hospital (G2576T, G)
# [11] = S. aureus No. 1652, Oxacillin R, Van-S, LZD-R, Hospital (T2500T, A)
# [12] = S. aureus No. 1662, Oxacillin S, Hospital
# [13] = S. aureus No. 1725, Oxacillin R, Van-S, LZD-R, Hospital (G2576T)
# [14] = S. aureus No. 1729, Oxacillin R, Tet-R, MI-R, Hospital
# [15] = S. aureus No. 2011, Oxacillin R, Tet-R, MI-S, Hospital (tetK)
# [16] = S. aureus No. 2012, Oxacillin R, Van-I, LZD-S, Hospital
# [17] = S. aureus No. 2018, Oxacillin R, Van-I, LZD-S, Hospital
# [18] = S. aureus No. 2142, Oxacillin R, CC-S, SXT-S, Community
# [19] = S. aureus No. 2143, Oxacillin R, Rif-R, Community
# [20] = S. aureus No. 2147, Oxacillin R, CC-S, SXT-S, Community
# [21] = S. aureus No. 2149, Oxacillin R, CC-R (iMLS), SXT-S, Community
# [22] = S. aureus No. 2150, Oxacillin R, CC-R, SXT-S, Community
# [23] = S. aureus No. 2158, Oxacillin R, CC-R, Doxy-I, Community
# [24] = S. aureus No. 2175, Oxacillin R, TMP-R, Community
# [25] = S. epidermidis No. 831, Oxacillin R
# [26] = S. epidermidis No. 1139, Oxacillin S
# [27] = S. epidermidis No. 1142, Oxacillin R
# [28] = S. epidermidis No. 1144, Oxacillin R
# [29] = Staphylococcus aureus, ATCC29213, S. aureus No. 0100, Oxacillin S, ATCC 29213
# [30] = Staphylococcus aureus, S. aureus No. 1015, Oxacillin R, Van-S, LZD-S, Hospital
# [31] = Staphylococcus epidermidis, S. epidermidis No. 835, Oxacillin S
compound,measurement,setting,value
"CCCc1ccc2nc(COc3ccc(F)c(C(N)=O)c3F)sc2c1 [Example 231, 2,6-Difluoro-3-[(6-propyl-1,3-benzothiazol-2-yl)methoxy]benzenecarboxamide]",MIC,Bacillus subtilis 168CA,< 8 µg/mL
same,MIC,[1],< 8 µg/mL
same,melting point,,244 to 246 °C
"N#CCCCCCCCCCOc1cccc(C(N)=O)c1 [Example 93, 3-[(9-Cyanononyl)oxy]benzenecarboxamide]",MIC,Bacillus subtilis 168CA,< 8 µg/mL
same,MIC,[1],16 to 64 µg/mL
same,melting point,,96 to 97 °C
"CCCCCCCCCOc1ccc(F)c(C(N)=O)c1Cl [Example 78, 2-Chloro-6-fluoro-3-(nonyloxy)benzenecarboxamide]",MIC,Bacillus subtilis 168CA,< 8 µg/mL
same,MIC,[1],< 8 µg/mL
same,melting point,,64 to 66 °C
"CCCCCCCCCOc1ccc(Cl)c(C(N)=O)c1F [Example 76, 6-Chloro-2-fluoro-3-(nonyloxy)benzenecarboxamide]",MIC,Bacillus subtilis 168CA,< 8 µg/mL
same,MIC,[1],< 8 µg/mL
same,melting point,,75 to 77 °C
"NC(=O)c1cccc(OCCCCC/C=C\c2ccc(Cl)o2)c1 [Example 64, 3-{[(Z)-7-(5-Chloro-2-furyl)-6-heptenyl]oxy}benzenecarboxamide]",MIC,Bacillus subtilis 168CA,< 8 µg/mL
same,MIC,[1],< 8 µg/mL
same,melting point,,53 to 56 °C
"CCCCCCOc1ccc(F)c(C(N)=O)c1Cl [Example 77, 2-Chloro-6-fluoro-3-(hexyloxy)benzenecarboxamide]",MIC,Bacillus subtilis 168CA,16 to 64 µg/mL
same,MIC,[1],16 to 64 µg/mL
same,melting point,,66 to 68 °C
"NC(=O)c1cccc(OCCCCCCCc2ccsc2)c1 [Example 63, 3-{[7-(3-Thienyl)heptyl]oxy}benzenecarboxamide]",MIC,Bacillus subtilis 168CA,< 8 µg/mL
same,melting point,,97 to 100 °C
"COc1ccc2nc(COc3ccc(F)c(C(N)=O)c3F)sc2c1 [Example 224, 2,6-Difluoro-3-[(6-methoxy-1,3-benzothiazol-2-yl)methoxy]benzenecarboxamide]",MIC,Bacillus subtilis 168CA,16 to 64 µg/mL
same,MIC,[1],> 64 µg/mL
same,melting point,,190 to 192 °C
"C#CCCCCCCCCOc1cccc(C(N)=O)c1 [Example 67, 3-(9-Decynyloxy)benzenecarboxamide]",MIC,Bacillus subtilis 168CA,< 8 µg/mL
same,MIC,[1],< 8 µg/mL
same,melting point,,111 to 112 °C
"NC(=O)c1ccnc(OCc2nc3cc(Cl)ccc3s2)c1 [Example 222, 2-[(5-Chloro-1,3-benzothiazol-2-yl)methoxy]isonicotinamide]",MIC,Bacillus subtilis 168CA,< 8 µg/mL
same,MIC,[1],< 8 µg/mL
same,melting point,,220 to 222 °C
"Cc1ccc(-c2nc(COc3ccc(F)c(C(N)=O)c3F)cs2)cc1 [Example 236, 2,6-Difluoro-3-[2-(4-methylphenyl)-1,3-thiazol-4-yl]methoxybenzenecarboxamide]",MIC,Bacillus subtilis 168CA,< 8 µg/mL
same,MIC,[1],< 8 µg/mL
same,MIC,[2]; [4],< 8 µg/mL
same,MIC,[2]; [5],< 8 µg/mL
same,MIC Activity against clinical isolate,[3]; [6],A (‘A’ if the MIC was ≦8 micrograms/ml)
same,MIC Activity against clinical isolate,[3]; [7],A (‘A’ if the MIC was ≦8 micrograms/ml)
same,MIC Activity against clinical isolate,[3]; [8],A (‘A’ if the MIC was ≦8 micrograms/ml)
same,MIC Activity against clinical isolate,[3]; [9],A (‘A’ if the MIC was ≦8 micrograms/ml)
same,MIC Activity against clinical isolate,[3]; [10],A (‘A’ if the MIC was ≦8 micrograms/ml)
same,MIC Activity against clinical isolate,[3]; [11],A (‘A’ if the MIC was ≦8 micrograms/ml)
same,MIC Activity against clinical isolate,[3]; [12],A (‘A’ if the MIC was ≦8 micrograms/ml)
same,MIC Activity against clinical isolate,[3]; [13],A (‘A’ if the MIC was ≦8 micrograms/ml)
same,MIC Activity against clinical isolate,[3]; [14],A (‘A’ if the MIC was ≦8 micrograms/ml)
same,MIC Activity against clinical isolate,[3]; [15],A (‘A’ if the MIC was ≦8 micrograms/ml)
same,MIC Activity against clinical isolate,[3]; [16],A (‘A’ if the MIC was ≦8 micrograms/ml)
same,MIC Activity against clinical isolate,[3]; [17],A (‘A’ if the MIC was ≦8 micrograms/ml)
same,MIC Activity against clinical isolate,[3]; [18],A (‘A’ if the MIC was ≦8 micrograms/ml)
same,MIC Activity against clinical isolate,[3]; [19],A (‘A’ if the MIC was ≦8 micrograms/ml)
same,MIC Activity against clinical isolate,[3]; [20],A (‘A’ if the MIC was ≦8 micrograms/ml)
same,MIC Activity against clinical isolate,[3]; [21],A (‘A’ if the MIC was ≦8 micrograms/ml)
same,MIC Activity against clinical isolate,[3]; [22],A (‘A’ if the MIC was ≦8 micrograms/ml)
same,MIC Activity against clinical isolate,[3]; [23],A (‘A’ if the MIC was ≦8 micrograms/ml)
same,MIC Activity against clinical isolate,[3]; [24],A (‘A’ if the MIC was ≦8 micrograms/ml)
same,MIC Activity against clinical isolate,[3]; [25],A (‘A’ if the MIC was ≦8 micrograms/ml)
same,MIC Activity against clinical isolate,[3]; [26],A (‘A’ if the MIC was ≦8 micrograms/ml)
same,MIC Activity against clinical isolate,[3]; [27],A (‘A’ if the MIC was ≦8 micrograms/ml)
same,MIC Activity against clinical isolate,[3]; [28],A (‘A’ if the MIC was ≦8 micrograms/ml)
same,MIC,[3]; [29],< 8 µg/mL
same,MIC,[3]; [30],< 8 µg/mL
same,MIC,[3]; [31],< 8 µg/mL
"Cc1cc(COc2ccc(F)c(C(N)=O)c2F)ccn1 [Example 198, 2,6-Difluoro-3-[(2-methyl-4-pyridinyl)methoxy]benzenecarboxamide]",MIC,Bacillus subtilis 168CA,16 to 64 µg/mL
same,melting point,,185 to 186 °C
"NC(=O)c1c(F)ccc(OCc2nc3cc(C(F)(F)F)ccc3s2)c1F [Example 217, 2,6-Difluoro-3-[5-(trifluoromethyl)-1,3-benzothiazol-2-yl]methoxybenzenecarboxamide]",MIC,Bacillus subtilis 168CA,< 8 µg/mL
same,MIC,[1],< 8 µg/mL
same,MIC,[2]; [4],< 8 µg/mL
same,MIC,"[2]; Staphylococcus epidermidis, ATCC12228, read-out: MIC Activity Staphylococcus epidermidis ATCC 12228",< 8 µg/mL
same,MIC,[2]; [5],< 8 µg/mL
same,MIC Activity against clinical isolate,[3]; [6],A (‘A’ if the MIC was ≦8 micrograms/ml)
same,MIC Activity against clinical isolate,[3]; [7],A (‘A’ if the MIC was ≦8 micrograms/ml)
same,MIC Activity against clinical isolate,[3]; [8],A (‘A’ if the MIC was ≦8 micrograms/ml)
same,MIC Activity against clinical isolate,[3]; [9],A (‘A’ if the MIC was ≦8 micrograms/ml)
same,MIC Activity against clinical isolate,[3]; [10],A (‘A’ if the MIC was ≦8 micrograms/ml)
same,MIC Activity against clinical isolate,[3]; [11],A (‘A’ if the MIC was ≦8 micrograms/ml)
same,MIC Activity against clinical isolate,[3]; [12],A (‘A’ if the MIC was ≦8 micrograms/ml)
same,MIC Activity against clinical isolate,[3]; [13],A (‘A’ if the MIC was ≦8 micrograms/ml)
same,MIC Activity against clinical isolate,[3]; [14],A (‘A’ if the MIC was ≦8 micrograms/ml)
same,MIC Activity against clinical isolate,[3]; [15],A (‘A’ if the MIC was ≦8 micrograms/ml)
same,MIC Activity against clinical isolate,[3]; [16],A (‘A’ if the MIC was ≦8 micrograms/ml)
same,MIC Activity against clinical isolate,[3]; [17],A (‘A’ if the MIC was ≦8 micrograms/ml)
same,MIC Activity against clinical isolate,[3]; [18],A (‘A’ if the MIC was ≦8 micrograms/ml)
same,MIC Activity against clinical isolate,[3]; [19],A (‘A’ if the MIC was ≦8 micrograms/ml)
same,MIC Activity against clinical isolate,[3]; [20],A (‘A’ if the MIC was ≦8 micrograms/ml)
same,MIC Activity against clinical isolate,[3]; [21],A (‘A’ if the MIC was ≦8 micrograms/ml)
same,MIC Activity against clinical isolate,[3]; [22],A (‘A’ if the MIC was ≦8 micrograms/ml)
same,MIC Activity against clinical isolate,[3]; [23],A (‘A’ if the MIC was ≦8 micrograms/ml)
same,MIC Activity against clinical isolate,[3]; [24],A (‘A’ if the MIC was ≦8 micrograms/ml)
same,MIC Activity against clinical isolate,[3]; [25],A (‘A’ if the MIC was ≦8 micrograms/ml)
same,MIC Activity against clinical isolate,[3]; [26],A (‘A’ if the MIC was ≦8 micrograms/ml)
same,MIC Activity against clinical isolate,[3]; [27],A (‘A’ if the MIC was ≦8 micrograms/ml)
same,MIC Activity against clinical isolate,[3]; [28],A (‘A’ if the MIC was ≦8 micrograms/ml)
same,MIC,[3]; [29],< 8 µg/mL
same,MIC,[3]; [30],< 8 µg/mL
same,MIC,[3]; [31],< 8 µg/mL
"Cc1ccc(S(=O)(=O)OCCCCCCCCCOc2cccc(C(N)=O)c2)cc1 [Example 92, 9-[3-(Aminocarbonyl)phenoxy]nonyl 4-methylbenzenesulfonate]",MIC,Bacillus subtilis 168CA,< 8 µg/mL
same,melting point,,78 to 80 °C
